Columns and labels:
[1] = biological target: T1, Alpha-2C adrenergic receptor (Homo sapiens, UniProt P18825); assay type: functional
T1 sequence (P18825 whole entry): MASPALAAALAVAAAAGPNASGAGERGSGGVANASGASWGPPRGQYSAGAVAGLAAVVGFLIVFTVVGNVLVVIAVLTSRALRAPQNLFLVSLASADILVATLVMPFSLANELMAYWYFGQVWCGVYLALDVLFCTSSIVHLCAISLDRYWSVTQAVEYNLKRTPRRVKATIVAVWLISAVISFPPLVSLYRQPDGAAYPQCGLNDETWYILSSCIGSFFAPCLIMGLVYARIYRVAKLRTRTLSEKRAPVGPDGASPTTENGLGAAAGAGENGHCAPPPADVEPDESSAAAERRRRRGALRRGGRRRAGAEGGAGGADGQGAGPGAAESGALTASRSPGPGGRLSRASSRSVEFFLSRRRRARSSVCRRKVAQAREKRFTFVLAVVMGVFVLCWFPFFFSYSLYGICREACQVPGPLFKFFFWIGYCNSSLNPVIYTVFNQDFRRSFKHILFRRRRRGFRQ

Mu-type opioid receptor = Mu-type opioid receptor (Homo sapiens, UniProt P35372); test: biochemical; assay type: functional
Sequence of Mu-type opioid receptor (P35372 whole entry): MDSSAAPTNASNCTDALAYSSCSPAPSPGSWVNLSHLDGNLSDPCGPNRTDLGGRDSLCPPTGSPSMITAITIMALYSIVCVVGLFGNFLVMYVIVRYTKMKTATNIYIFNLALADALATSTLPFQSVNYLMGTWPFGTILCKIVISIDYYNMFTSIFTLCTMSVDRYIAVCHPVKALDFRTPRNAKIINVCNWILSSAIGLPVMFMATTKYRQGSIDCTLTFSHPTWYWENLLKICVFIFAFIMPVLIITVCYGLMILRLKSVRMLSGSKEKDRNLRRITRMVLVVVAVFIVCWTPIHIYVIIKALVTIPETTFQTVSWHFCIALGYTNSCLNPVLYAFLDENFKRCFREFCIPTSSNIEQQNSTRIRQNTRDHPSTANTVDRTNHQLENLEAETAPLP

Progesterone receptor = biological target: T2, Progesterone receptor (Homo sapiens, UniProt P06401); assay type: functional
T2 sequence (P06401 whole entry): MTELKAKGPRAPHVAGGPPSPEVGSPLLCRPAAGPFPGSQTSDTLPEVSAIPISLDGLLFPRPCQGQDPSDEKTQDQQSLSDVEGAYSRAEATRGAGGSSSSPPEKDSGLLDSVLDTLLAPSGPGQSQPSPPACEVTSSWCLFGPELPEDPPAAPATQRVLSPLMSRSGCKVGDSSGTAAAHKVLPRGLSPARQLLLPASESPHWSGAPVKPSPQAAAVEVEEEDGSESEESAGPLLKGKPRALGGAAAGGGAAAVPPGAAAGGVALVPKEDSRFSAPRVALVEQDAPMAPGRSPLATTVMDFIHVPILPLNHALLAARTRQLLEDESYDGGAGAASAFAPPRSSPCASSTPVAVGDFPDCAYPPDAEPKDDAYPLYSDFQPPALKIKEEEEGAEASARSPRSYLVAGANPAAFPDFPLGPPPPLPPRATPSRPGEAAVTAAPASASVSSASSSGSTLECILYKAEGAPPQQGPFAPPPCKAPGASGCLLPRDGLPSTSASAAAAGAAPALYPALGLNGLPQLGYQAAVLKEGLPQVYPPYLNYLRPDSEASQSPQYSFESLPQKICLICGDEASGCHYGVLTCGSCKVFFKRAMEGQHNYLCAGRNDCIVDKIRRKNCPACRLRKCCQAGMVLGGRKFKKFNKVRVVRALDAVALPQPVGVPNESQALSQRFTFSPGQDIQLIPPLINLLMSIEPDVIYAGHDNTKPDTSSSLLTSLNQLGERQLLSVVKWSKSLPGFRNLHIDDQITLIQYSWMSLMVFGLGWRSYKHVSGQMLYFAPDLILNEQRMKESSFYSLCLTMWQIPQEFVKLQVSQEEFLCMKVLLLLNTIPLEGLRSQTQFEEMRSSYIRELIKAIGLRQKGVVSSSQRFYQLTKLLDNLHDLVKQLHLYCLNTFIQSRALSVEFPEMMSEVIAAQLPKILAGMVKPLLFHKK

Histamine H3 receptor = Histamine H3 receptor (Homo sapiens, UniProt Q9Y5N1)
Sequence of Histamine H3 receptor (Q9Y5N1 whole entry): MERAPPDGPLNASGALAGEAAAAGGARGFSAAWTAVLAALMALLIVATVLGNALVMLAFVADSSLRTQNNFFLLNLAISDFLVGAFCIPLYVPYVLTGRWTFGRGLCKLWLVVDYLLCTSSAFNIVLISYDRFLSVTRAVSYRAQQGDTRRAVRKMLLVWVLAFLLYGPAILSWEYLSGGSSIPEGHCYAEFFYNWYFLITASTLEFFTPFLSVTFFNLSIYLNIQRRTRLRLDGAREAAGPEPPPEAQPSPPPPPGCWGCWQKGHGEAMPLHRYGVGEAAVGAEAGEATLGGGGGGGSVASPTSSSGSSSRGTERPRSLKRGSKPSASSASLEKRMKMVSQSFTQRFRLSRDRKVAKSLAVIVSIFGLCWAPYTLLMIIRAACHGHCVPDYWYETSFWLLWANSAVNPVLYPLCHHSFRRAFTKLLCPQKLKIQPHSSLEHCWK

Estrogen receptor = biological target: T3, Estrogen receptor (Homo sapiens, UniProt P03372)
T3 sequence (P03372 whole entry): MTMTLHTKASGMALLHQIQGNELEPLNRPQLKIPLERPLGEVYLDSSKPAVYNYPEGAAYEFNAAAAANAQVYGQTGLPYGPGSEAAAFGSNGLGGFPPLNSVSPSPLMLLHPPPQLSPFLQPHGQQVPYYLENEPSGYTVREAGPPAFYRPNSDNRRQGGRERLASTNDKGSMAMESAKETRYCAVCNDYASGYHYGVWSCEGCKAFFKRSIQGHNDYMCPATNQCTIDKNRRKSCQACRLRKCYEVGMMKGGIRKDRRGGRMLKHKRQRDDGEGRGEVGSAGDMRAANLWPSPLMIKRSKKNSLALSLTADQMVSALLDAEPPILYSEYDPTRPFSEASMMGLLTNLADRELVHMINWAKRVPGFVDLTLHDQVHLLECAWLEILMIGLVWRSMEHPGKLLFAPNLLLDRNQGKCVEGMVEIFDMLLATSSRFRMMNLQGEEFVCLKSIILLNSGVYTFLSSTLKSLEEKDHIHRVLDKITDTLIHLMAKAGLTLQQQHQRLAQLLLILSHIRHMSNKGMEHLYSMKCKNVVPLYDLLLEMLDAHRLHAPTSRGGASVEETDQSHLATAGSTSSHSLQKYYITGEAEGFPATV

[2] = biological target: 5-hydroxytryptamine receptor 2A (Homo sapiens, UniProt P28223); assay type: functional, cell-based
Sequence of 5-hydroxytryptamine receptor 2A (P28223 whole entry): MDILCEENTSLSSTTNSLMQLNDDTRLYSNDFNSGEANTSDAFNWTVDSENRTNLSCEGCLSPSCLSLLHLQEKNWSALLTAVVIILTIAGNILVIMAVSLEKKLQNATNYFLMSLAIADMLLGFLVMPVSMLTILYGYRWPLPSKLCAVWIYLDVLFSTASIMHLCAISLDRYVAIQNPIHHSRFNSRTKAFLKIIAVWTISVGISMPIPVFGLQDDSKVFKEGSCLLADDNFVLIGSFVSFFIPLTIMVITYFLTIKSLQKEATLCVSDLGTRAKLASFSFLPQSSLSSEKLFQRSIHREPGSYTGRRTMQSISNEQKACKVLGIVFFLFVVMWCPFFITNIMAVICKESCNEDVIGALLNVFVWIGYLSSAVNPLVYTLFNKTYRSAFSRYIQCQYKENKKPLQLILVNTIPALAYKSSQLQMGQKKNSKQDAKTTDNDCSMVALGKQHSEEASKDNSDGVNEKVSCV

[3] = biological target: T4, Alpha-2B adrenergic receptor (Homo sapiens, UniProt P18089)
T4 sequence (P18089 whole entry): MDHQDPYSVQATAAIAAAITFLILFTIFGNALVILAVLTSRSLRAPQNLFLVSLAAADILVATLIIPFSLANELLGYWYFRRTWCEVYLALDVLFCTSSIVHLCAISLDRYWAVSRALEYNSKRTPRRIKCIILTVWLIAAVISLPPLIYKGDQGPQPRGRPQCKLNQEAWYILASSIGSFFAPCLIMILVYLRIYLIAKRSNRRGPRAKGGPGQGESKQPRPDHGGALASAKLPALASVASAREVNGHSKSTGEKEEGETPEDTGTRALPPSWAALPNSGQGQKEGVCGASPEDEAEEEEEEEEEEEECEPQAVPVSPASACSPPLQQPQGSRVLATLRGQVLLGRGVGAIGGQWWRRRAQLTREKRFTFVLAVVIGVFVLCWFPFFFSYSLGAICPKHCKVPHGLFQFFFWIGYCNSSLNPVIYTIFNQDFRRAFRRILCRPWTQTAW
Also: assay procedure not described here.

Row | SMILES | AC50 [1] | AC50 (Mu-type opioid receptor) | AC50 (Progesterone receptor) | AC50 (Histamine H3 receptor) | AC50 (Estrogen receptor) | AC50 [2] | AC50 [3]
1 | CC(C)(C)NC[C@H](O)COc1nsnc1N1CCOCC1 [TIMOLOL] | > 30 µM | > 30 µM | > 30 µM | > 30 µM |  |  | 
2 | [H]/N=C(/N)N[C@H]1[C@H](O)[C@@H](O)[C@H](O[C@@H]2O[C@@H](C)[C@](O)(C=O)[C@H]2O[C@@H]2O[C@@H](CO)[C@H](O)[C@@H](O)[C@@H]2NC)[C@@H](N/C(N)=N\[H])[C@@H]1O [STREPTOMYCIN] | > 30 µM | > 30 µM | > 30 µM | > 30 µM | > 30 µM |  | 
3 | COc1ccc(/C=C/C(=O)Nc2ccccc2C(=O)O)cc1OC | > 30 µM | > 30 µM | > 30 µM | > 30 µM | > 30 µM |  | 
4 | Nc1nc2c(c(=O)[nH]1)N(C=O)C(CNc1ccc(C(=O)N[C@@H](CCC(=O)O)C(=O)O)cc1)CN2 (stereo partly drawn) [LEUCOVORIN] | > 30 µM | > 30 µM | > 30 µM | > 30 µM |  |  | 
5 | CS(=O)(=O)OCCCCOS(C)(=O)=O [BUSULFAN] | > 30 µM | > 30 µM | > 30 µM | > 30 µM | > 30 µM |  | 
6 | COc1cc2nccc(Oc3ccc(NC(=O)Nc4cc(C)on4)c(Cl)c3)c2cc1OC [TIVOZANIB] | > 30 µM |  | > 3 µM |  |  | > 30 µM | 
7 | COc1ccc(C(CN(C)C)C2(O)CCCCC2)cc1 (stereo not drawn) [VENLAFAXINE] | > 10 µM |  |  | 6.8 µM |  |  | 
8 | CC(C)(C)NCC(O)c1cc(Cl)c(N)c(Cl)c1 (stereo not drawn) [CLENBUTEROL] | > 30 µM | > 30 µM | > 30 µM | > 30 µM |  |  | 
9 | Clc1ccc2c(c1)C(c1ccccc1)=NCc1nncn1-2 [ESTAZOLAM] | > 10 µM |  |  | > 10 µM | > 30 µM |  | > 10 µM
10 | N[C@H](Cc1cc(I)c(Oc2cc(I)c(O)c(I)c2)c(I)c1)C(=O)O [DEXTROTHYROXINE] | > 10 µM |  |  | > 10 µM |  | > 30 µM | > 10 µM
11 | NCCCC(O)(P(=O)(O)O)P(=O)(O)O [ALENDRONIC ACID] | > 10 µM |  |  | > 10 µM |  |  | 
12 | Clc1ccc(C(Cn2ccnc2)OCc2ccc(Sc3ccccc3)cc2)c(Cl)c1 (stereo not drawn) [FENTICONAZOLE] | > 30 µM | > 30 µM | > 30 µM | > 30 µM | > 10 µM |  | 12 µM
13 | CC(C)CC(N(C)C)C1(c2ccc(Cl)cc2)CCC1 (stereo not drawn) [SIBUTRAMINE] | 3.8 µM | > 30 µM |  | > 10 µM |  |  | 
14 | Nc1ccn([C@@H]2O[C@H](CO)[C@@H](O)C2(F)F)c(=O)n1 [GEMCITABINE] | > 10 µM |  | > 30 µM | > 10 µM | > 30 µM |  | 
15 | CC#CCn1c(N2CCC[C@@H](N)C2)nc2c1c(=O)n(Cc1nc(C)c3ccccc3n1)c(=O)n2C [LINAGLIPTIN] | > 10 µM |  |  | > 10 µM | > 30 µM |  | > 10 µM
16 | Cc1cccc(N(C)C(=S)Oc2ccc3ccccc3c2)c1 [TOLNAFTATE] | > 30 µM | > 30 µM | > 30 µM |  | > 30 µM |  | 
